Measured values taken from BindingDB's records for patent US10618914 (University of Pittsburgh, 2020).

Target: T1, Signal transducer and activator of transcription 1-alpha/beta (Homo sapiens, UniProt P42224)
T1 sequence (P42224 whole entry): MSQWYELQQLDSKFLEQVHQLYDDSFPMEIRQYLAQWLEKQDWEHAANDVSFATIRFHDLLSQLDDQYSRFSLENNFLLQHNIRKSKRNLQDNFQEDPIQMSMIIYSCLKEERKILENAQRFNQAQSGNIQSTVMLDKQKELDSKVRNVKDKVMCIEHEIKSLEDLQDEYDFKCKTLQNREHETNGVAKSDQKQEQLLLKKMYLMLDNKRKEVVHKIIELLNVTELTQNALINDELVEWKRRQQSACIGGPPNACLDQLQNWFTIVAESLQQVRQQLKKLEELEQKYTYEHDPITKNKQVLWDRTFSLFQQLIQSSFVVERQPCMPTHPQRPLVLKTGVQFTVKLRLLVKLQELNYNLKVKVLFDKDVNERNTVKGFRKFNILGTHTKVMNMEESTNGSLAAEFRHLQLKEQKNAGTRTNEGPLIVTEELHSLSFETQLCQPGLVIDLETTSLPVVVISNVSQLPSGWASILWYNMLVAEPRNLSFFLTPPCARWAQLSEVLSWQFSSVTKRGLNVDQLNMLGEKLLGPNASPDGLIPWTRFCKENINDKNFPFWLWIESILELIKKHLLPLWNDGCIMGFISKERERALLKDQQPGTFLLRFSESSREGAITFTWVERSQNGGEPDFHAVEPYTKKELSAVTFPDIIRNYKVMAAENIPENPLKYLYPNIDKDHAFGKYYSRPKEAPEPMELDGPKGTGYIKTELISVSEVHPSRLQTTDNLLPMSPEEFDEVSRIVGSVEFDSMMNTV
Experiment: Bioassay Evaluation
Procedure: Compound samples (in 3-5 mg quantities) were evaluated in a variety of assays.

Row | IC50 [µM] | Compound
1 | > 50 | CC1Sc2nnc(-c3[nH]nc4c3CCC4)n2N=C1c1ccc(Cl)c(Cl)c1 (configuration not stated) [US10618914, Compound 19]
2 | > 50 | CC1(C)Sc2nnc(-c3[nH]nc4c3CCC4)n2N=C1c1ccc(Cl)c(Cl)c1 [US10618914, Compound 32]
